Assay results published in ChEMBL document CHEMBL1148029, “Synthesis and radiopharmacological characterization of 2beta-carbo-2'-[18F]fluoroethoxy-3beta-(4-bromo-phenyl)tropane ([18F]MCL-322) as a PET radiotracer for imaging the dopamine transporter (DAT)” (Bioorg Med Chem, 2007).

Key:
Muscle tissue [1] = assay: Biodistribution in Wistar rat muscle at 300 uCi, iv after 60 mins; type: ADME, organism-based; details: in vivo, 1 h
Muscle tissue [2] = assay: Biodistribution in Wistar rat muscle at 300 uCi, iv after 240 mins; type: ADME, organism-based; details: in vivo, 4 h
Heart [3] = assay: Biodistribution in Wistar rat heart at 300 uCi, iv after 120 mins; type: ADME, organism-based; details: in vivo, 2 h
Heart [4] = assay: Biodistribution in Wistar rat heart at 300 uCi, iv after 240 mins; type: ADME, organism-based; details: in vivo, 4 h
Cortex [5] = assay: Biodistribution in Wistar rat cortex at 300 uCi, iv after 60 mins in presence of nisoxetine; type: ADME, organism-based; details: in vivo, 1 h
Cerebellum = assay: Biodistribution in Wistar rat cerebellum at 300 uCi, iv after 60 mins in presence of nisoxetine; type: ADME, organism-based; details: in vivo, 1 h
Hippocampus [6] = assay: Biodistribution in Wistar rat hippocampus at 300 uCi, iv after 60 mins in presence of citalopram; type: ADME, organism-based; details: in vivo, 1 h
Hippocampus [7] = assay: Biodistribution in Wistar rat hippocampus at 300 uCi, iv after 60 mins in presence of nisoxetine; type: ADME, organism-based; details: in vivo, 1 h
Blood [8] = assay: Biodistribution in Wistar rat blood at 300 uCi, iv after 240 mins; type: ADME, organism-based; details: in vivo, 4 h
[9] = Biodistribution in Wistar rat brown fat at 300 uCi, iv after 5 mins; type: ADME, organism-based, Brown adipose tissue; details: in vivo
[10] = Biodistribution in Wistar rat brown fat at 300 uCi, iv after 20 mins; type: ADME, organism-based, Brown adipose tissue; details: in vivo
[11] = Biodistribution in Wistar rat brown fat at 300 uCi, iv after 240 mins; type: ADME, organism-based, Brown adipose tissue; details: in vivo, 4 h
[12] = Biodistribution in Wistar rat hair and skin at 300 uCi, iv after 20 mins; type: ADME, organism-based; details: in vivo
Pancreas = assay: Biodistribution in Wistar rat pancreas at 300 uCi, iv after 60 mins; type: ADME, organism-based; details: in vivo, 1 h
Spleen [13] = assay: Biodistribution in Wistar rat spleen at 300 uCi, iv after 5 mins; type: ADME, organism-based; details: in vivo
Spleen [14] = assay: Biodistribution in Wistar rat spleen at 300 uCi, iv after 20 mins; type: ADME, organism-based; details: in vivo
Spleen [15] = assay: Biodistribution in Wistar rat spleen at 300 uCi, iv after 120 mins; type: ADME, organism-based; details: in vivo, 2 h
Spleen [16] = assay: Biodistribution in Wistar rat spleen at 300 uCi, iv after 240 mins; type: ADME, organism-based; details: in vivo, 4 h
Adrenal [17] = assay: Biodistribution in Wistar rat adrenal gland at 300 uCi, iv after 5 mins; type: ADME, organism-based, Adrenal tissue; details: in vivo
Adrenal [18] = assay: Biodistribution in Wistar rat adrenal gland at 300 uCi, iv after 20 mins; type: ADME, organism-based, Adrenal tissue; details: in vivo
Adrenal [19] = assay: Biodistribution in Wistar rat adrenal gland at 300 uCi, iv after 120 mins; type: ADME, organism-based, Adrenal tissue; details: in vivo, 2 h
Adrenal [20] = assay: Biodistribution in Wistar rat adrenal gland at 300 uCi, iv after 240 mins; type: ADME, organism-based, Adrenal tissue; details: in vivo, 4 h
Kidney [21] = assay: Biodistribution in Wistar rat kidney at 300 uCi, iv after 5 mins; type: ADME, organism-based; details: in vivo
Kidney [22] = assay: Biodistribution in Wistar rat kidney at 300 uCi, iv after 60 mins; type: ADME, organism-based; details: in vivo, 1 h
Kidney [23] = assay: Biodistribution in Wistar rat kidney at 300 uCi, iv after 240 mins; type: ADME, organism-based; details: in vivo, 4 h
[24] = Biodistribution in Wistar rat fat at 300 uCi, iv after 5 mins; type: ADME, organism-based, Adipose tissue; details: in vivo
[25] = Biodistribution in Wistar rat fat at 300 uCi, iv after 60 mins; type: ADME, organism-based, Adipose tissue; details: in vivo, 1 h
[26] = Biodistribution in Wistar rat fat at 300 uCi, iv after 120 mins; type: ADME, organism-based, Adipose tissue; details: in vivo, 2 h
[27] = Biodistribution in Wistar rat fat at 300 uCi, iv after 240 mins; type: ADME, organism-based, Adipose tissue; details: in vivo, 4 h
Lung [28] = assay: Biodistribution in Wistar rat lung at 300 uCi, iv after 20 mins; type: ADME, organism-based; details: in vivo
Lung [29] = assay: Biodistribution in Wistar rat lung at 300 uCi, iv after 60 mins; type: ADME, organism-based; details: in vivo, 1 h
Lung [30] = assay: Biodistribution in Wistar rat lung at 300 uCi, iv after 240 mins; type: ADME, organism-based; details: in vivo, 4 h
Thymus [31] = assay: Biodistribution in Wistar rat thymus at 300 uCi, iv after 5 mins; type: ADME, organism-based; details: in vivo
Thymus [32] = assay: Biodistribution in Wistar rat thymus at 300 uCi, iv after 20 mins; type: ADME, organism-based; details: in vivo
Thymus [33] = assay: Biodistribution in Wistar rat thymus at 300 uCi, iv after 60 mins; type: ADME, organism-based; details: in vivo, 1 h
Thymus [34] = assay: Biodistribution in Wistar rat thymus at 300 uCi, iv after 120 mins; type: ADME, organism-based; details: in vivo, 2 h
Harderian gland = assay: Biodistribution in Wistar rat harderian glands at 300 uCi, iv after 120 mins; type: ADME, organism-based; details: in vivo, 2 h
Liver [35] = assay: Biodistribution in Wistar rat liver at 300 uCi, iv after 20 mins; type: ADME, organism-based; details: in vivo
Liver [36] = assay: Biodistribution in Wistar rat liver at 300 uCi, iv after 60 mins; type: ADME, organism-based; details: in vivo, 1 h
Liver [37] = assay: Biodistribution in Wistar rat liver at 300 uCi, iv after 240 mins; type: ADME, organism-based; details: in vivo, 4 h
Femur [38] = assay: Biodistribution in Wistar rat femur at 300 uCi, iv after 5 mins; type: ADME, organism-based; details: in vivo
Femur [39] = assay: Biodistribution in Wistar rat femur at 300 uCi, iv after 20 mins; type: ADME, organism-based; details: in vivo
Femur [40] = assay: Biodistribution in Wistar rat femur at 300 uCi, iv after 240 mins; type: ADME, organism-based; details: in vivo, 4 h
[41] = Biodistribution in Wistar rat rest of brain at 300 uCi, iv after 5 mins; type: ADME, organism-based; details: in vivo
Striatum [42] = assay: Biodistribution in Wistar rat striatum at 300 uCi, iv after 60 mins; type: ADME, organism-based; details: in vivo, 1 h
Striatum [43] = assay: Biodistribution in Wistar rat striatum at 300 uCi, iv after 120 mins; type: ADME, organism-based; details: in vivo, 2 h
Hippocampus [44] = assay: Biodistribution in Wistar rat hippocampus at 300 uCi, iv after 20 mins; type: ADME, organism-based; details: in vivo
Hippocampus [45] = assay: Biodistribution in Wistar rat hippocampus at 300 uCi, iv after 120 mins; type: ADME, organism-based; details: in vivo, 2 h
Hippocampus [46] = assay: Biodistribution in Wistar rat hippocampus at 300 uCi, iv after 240 mins; type: ADME, organism-based; details: in vivo, 4 h
[47] = Biodistribution in Wistar rat rest of brain at 300 uCi, iv after 60 mins; type: ADME, organism-based; details: in vivo, 1 h
Blood [48] = assay: Biodistribution in Wistar rat blood at 300 uCi, iv after 60 mins in presence of GBR-12909; type: ADME, organism-based; details: in vivo, 1 h
Blood [49] = assay: Biodistribution in Wistar rat blood at 300 uCi, iv after 60 mins in presence of citalopram; type: ADME, organism-based; details: in vivo, 1 h
Blood [50] = assay: Biodistribution in Wistar rat blood at 300 uCi, iv after 60 mins in presence of nisoxetine; type: ADME, organism-based; details: in vivo, 1 h
Striatum [51] = assay: Biodistribution in Wistar rat striatum at 300 uCi, iv after 60 mins in presence of citalopram; type: ADME, organism-based; details: in vivo, 1 h
Brain = assay: Biodistribution in Wistar rat rest of brain at 300 uCi, iv after 60 mins in presence of citalopram; type: ADME, organism-based; details: in vivo, 1 h
Cortex [52] = assay: Biodistribution in Wistar rat cortex at 300 uCi, iv after 20 mins; type: ADME, organism-based; details: in vivo
Cortex [53] = assay: Biodistribution in Wistar rat cortex at 300 uCi, iv after 60 mins; type: ADME, organism-based; details: in vivo, 1 h
Testes [54] = assay: Biodistribution in Wistar rat testes at 300 uCi, iv after 60 mins; type: ADME, organism-based, Testis; details: in vivo, 1 h
Testes [55] = assay: Biodistribution in Wistar rat testes at 300 uCi, iv after 240 mins; type: ADME, organism-based, Testis; details: in vivo, 4 h
Plasma = assay: Metabolic stability in Wistar rat plasma assessed as polar metabolite level at 1 mCi, iv after 30 mins; type: ADME, organism-based; details: in vivo, 0.5 h
[56] = Metabolic stability in Wistar rat striatum at 1 mCi, iv after 60 mins; type: ADME, organism-based; details: read-out: Stability

CN1C2CCC1C(C(=O)OCC[18F])C(c1ccc(Br)cc1)C2 (stereo unspecified)
Drug uptake (Muscle tissue [1]): 0.16 % ID/g
Drug uptake (Muscle tissue [2]): 0.04 % ID/g
Drug uptake (Heart [3]): 0.12 % ID/g
Drug uptake (Heart [4]): 0.07 % ID/g
Drug uptake (Cortex [5]): 0.96 % ID/g
Drug uptake (Cerebellum): 0.63 % ID/g
Drug uptake (Hippocampus [6]): 1.36 % ID/g
Drug uptake (Hippocampus [7]): 0.91 % ID/g
Drug uptake (Blood [8]): 0.03 % ID/g
Drug uptake [9]: 1.46 % ID/g
Drug uptake [10]: 0.78 % ID/g
Drug uptake [11]: 0.08 % ID/g
Drug uptake [12]: 0.47 % ID/g
Drug uptake (Pancreas): 0.54 % ID/g
Drug uptake (Spleen [13]): 1.51 % ID/g
Drug uptake (Spleen [14]): 1.41 % ID/g
Drug uptake (Spleen [15]): 0.29 % ID/g
Drug uptake (Spleen [16]): 0.12 % ID/g
Drug uptake (Adrenal [17]): 3.57 % ID/g
Drug uptake (Adrenal [18]): 1.21 % ID/g
Drug uptake (Adrenal [19]): 0.35 % ID/g
Drug uptake (Adrenal [20]): 0.17 % ID/g
Drug uptake (Kidney [21]): 4.64 % ID/g
Drug uptake (Kidney [22]): 3.1 % ID/g
Drug uptake (Kidney [23]): 0.83 % ID/g
Drug uptake [24]: 4.64 % ID/g
Drug uptake [25]: 0.27 % ID/g
Drug uptake [26]: 0.16 % ID/g
Drug uptake [27]: 0.06 % ID/g
Drug uptake (Lung [28]): 2.58 % ID/g
Drug uptake (Lung [29]): 1.14 % ID/g
Drug uptake (Lung [30]): 0.27 % ID/g
Drug uptake (Thymus [31]): 0.89 % ID/g
Drug uptake (Thymus [32]): 0.82 % ID/g
Drug uptake (Thymus [33]): 0.41 % ID/g
Drug uptake (Thymus [34]): 0.21 % ID/g
Drug uptake (Harderian gland): 1.82 % ID/g
Drug uptake (Liver [35]): 6.8 % ID/g
Drug uptake (Liver [36]): 11.8 % ID/g
Drug uptake (Liver [37]): 15.2 % ID/g
Drug uptake (Femur [38]): 0.59 % ID/g
Drug uptake (Femur [39]): 0.42 % ID/g
Drug uptake (Femur [40]): 0.07 % ID/g
Drug uptake [41]: 2.53 % ID/g
Drug uptake (Striatum [42]): 3.71 % ID/g
Drug uptake (Striatum [43]): 0.39 % ID/g
Drug uptake (Hippocampus [44]): 1.99 % ID/g
Drug uptake (Hippocampus [45]): 0.42 % ID/g
Drug uptake (Hippocampus [46]): 0.18 % ID/g
Drug uptake [47]: 1.1 % ID/g
Drug uptake (Blood [48]): 0.04 % ID/g
Drug uptake (Blood [49]): 0.052 % ID/g
Drug uptake (Blood [50]): 0.04 % ID/g
Drug uptake (Striatum [51]): 6.43 % ID/g
Drug uptake (Brain): 1.56 % ID/g
Drug uptake (Cortex [52]): 2.29 % ID/g
Drug uptake (Cortex [53]): 1 % ID/g
Drug uptake (Testes [54]): 0.5 % ID/g
Drug uptake (Testes [55]): 0.17 % ID/g
Stability (Plasma): 76%
remaining at 1 h [56]: > 90%
